Results as given in ChEMBL document CHEMBL1133382, “Probing the extended binding determinants of oligosaccharyl transferase with synthetic inhibitors of asparagine-linked glycosylation” (Bioorg Med Chem Lett, 2000).
Starred links: 1 amine or outer side, 2 acyl side, 3 side chain; linkers in the order of their positions; H or OH if unused. Positions of bridges follow the written chain, without caps; N, C: chain ends. Non-standard residues stand in square brackets, D forms with d. Residues, ends and D or L forms follow the SMILES beside them. *: point of attachment. Phe(4-NO2) = N[C@@H](Cc1ccc([N+](=O)[O-])cc1)C(=O)O; X1 = O=C(CCCCC[*:2])[*:1]; Dab = NCC[C@H](N)C(=O)O; X3 = c1ccc2cc(*)ccc2c1

target: T1, Dolichyl-diphosphooligosaccharide--protein glycosyltransferase 48 kDa subunit (UniProt P39656); test: Inhibition of asparagine-linked glycosylation by oligosaccharyl transferase; set-up: species or system Saccharomyces cerevisiae
T1 sequence (P39656 whole entry): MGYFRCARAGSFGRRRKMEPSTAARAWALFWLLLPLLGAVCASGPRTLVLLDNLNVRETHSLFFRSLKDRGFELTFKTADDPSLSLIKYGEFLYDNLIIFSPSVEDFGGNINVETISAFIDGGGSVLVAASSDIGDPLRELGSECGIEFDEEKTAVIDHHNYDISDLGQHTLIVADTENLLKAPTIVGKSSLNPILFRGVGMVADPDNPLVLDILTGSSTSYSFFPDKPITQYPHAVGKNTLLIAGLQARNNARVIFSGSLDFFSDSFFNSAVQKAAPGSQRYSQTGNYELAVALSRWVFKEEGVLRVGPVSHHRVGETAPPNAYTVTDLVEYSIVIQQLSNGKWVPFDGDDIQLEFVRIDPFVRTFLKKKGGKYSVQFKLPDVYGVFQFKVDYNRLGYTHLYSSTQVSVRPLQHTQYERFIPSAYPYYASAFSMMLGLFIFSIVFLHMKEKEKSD

`CC(C)[C@H](NC(=O)[C@@H](NC(=O)[C@@H]1CSCCCCCC(=O)N[C@@H](CCN)C(=O)N1)[C@@H](C)O)C(=O)N[C@H](C(=O)NCCc1ccccc1)[C@@H](C)O` and `CC(C)[C@H](NC(=O)[C@@H](NC(=O)[C@@H]1CSCCCCCC(=O)N[C@@H](CCN)C(=O)N1)[C@@H](C)O)C(=O)N[C@H](C(=O)NCCCCc1ccccc1)[C@@H](C)O` are within 1.5-fold of each other in Ki: 44 nM for the first, 50 nM for the second.

First: CC(C)[C@H](NC(=O)[C@@H](NC(=O)[C@@H]1CSCCCCCC(=O)N[C@@H](CCN)C(=O)N1)[C@@H](C)O)C(=O)N[C@H](C(=O)NCCc1ccc([N+](=O)[O-])cc1)[C@@H](C)O
Second: [H][C@@](NC(=O)[C@@H]1CSCCCCCC(=O)N[C@@H](CCN)C(=O)N1)(C(=O)N[C@H](C(=O)N[C@H](C(=O)N[C@@H](Cc1ccc([N+](=O)[O-])cc1)C(N)=O)[C@@H](C)O)C(C)C)[C@@H](C)O (HELM PEPTIDE1{[Dab].C.T.V.T.[O=C([C@H](Cc1ccc([N+](=O)[O-])cc1)N[*:1])[*:2]].[am]}|CHEM1{[O=C(CCCCC[*:2])[*:1]]}$PEPTIDE1,CHEM1,1:R1-1:R1|PEPTIDE1,CHEM1,2:R3-1:R2$$$V2.0)
The Ki of the first is 1.9-fold lower: 20 nM for the first, 37 nM for the second.

First: CCCCCCCCCCNCC[C@@H]1NC(=O)CCCCCSC[C@@H](C(=O)N[C@H](C(=O)N[C@H](C(=O)N[C@H](C(=O)N[C@@H](Cc2ccc([N+](=O)[O-])cc2)C(N)=O)[C@@H](C)O)C(C)C)[C@@H](C)O)NC1=O
Second: CC(C)[C@H](NC(=O)[C@@H](NC(=O)[C@@H]1CSCCCCCC(=O)N[C@@H](CCNc2ccc3ccccc3c2)C(=O)N1)[C@@H](C)O)C(=O)N[C@H](C(=O)N[C@@H](Cc1ccc([N+](=O)[O-])cc1)C(N)=O)[C@@H](C)O ([Dab](X3)CTVT[Phe(4-NO2)]-NH2; linker N-2 via X1)
The Ki of the first is 1.5-fold higher: 61 nM for the first, 40 nM for the second.

First: COc1ccc(CNCCC[C@H](NCc2ccccc2)C(=O)NCC(=O)N[C@H](C(=O)N[C@H](C(=O)N[C@H](C(N)=O)[C@@H](C)O)C(C)C)[C@@H](C)O)cc1 (HELM PEPTIDE1{[COc1ccc(CNCCC[C@H](NCc2ccccc2)C(=O)[*:2])cc1].G.T.V.T.[am]}$$$$V2.0)
Second: CC(C)[C@H](NC(=O)[C@@H](NC(=O)CNC(=O)[C@H](CCCNCc1ccc([N+](=O)[O-])cc1)NCc1ccccc1)[C@@H](C)O)C(=O)N[C@H](C(N)=O)[C@@H](C)O (HELM PEPTIDE1{[O=C([C@H](CCCNCc1ccc([N+](=O)[O-])cc1)NCc1ccccc1)[*:2]].G.T.V.T.[am]}$$$$V2.0)
The Ki of the first is 2-fold higher: 305 nM for the first, 154 nM for the second.

Going from `CC(C)[C@H](NC(=O)[C@@H](NC(=O)[C@@H]1CSCCCCCC(=O)N[C@@H](CCNc2ccc3ccccc3c2)C(=O)N1)[C@@H](C)O)C(=O)N[C@H](C(=O)NCCc1ccc([N+](=O)[O-])cc1)[C@@H](C)O` to `CC(C)[C@H](NC(=O)[C@@H](NC(=O)[C@@H]1CSCCCCCC(=O)N[C@@H](CCN)C(=O)N1)[C@@H](C)O)C(=O)N[C@H](C(N)=O)[C@@H](C)O`, the Ki rises from 10 nM to 82 nM (8.2-fold).

Work on `CC(C)[C@H](NC(=O)[C@@H](NC(=O)CNC(=O)[C@H](CCCNCc1ccccc1)NCc1ccccc1)[C@@H](C)O)C(=O)N[C@H](C(N)=O)[C@H](C)O` yielded a Ki greater than 5000 nM.
